Experimental data taken from ChEMBL document CHEMBL1201862, “PubChem BioAssay data set” (2004).
The source made the active and inactive calls.

Tests used:
[1] = molecular target: Cytochrome P450 2C19 (Homo sapiens, UniProt P33261); assay: Cytochrome panel assay with activity outcomes. Panel member name: p450-cyp2c19 Compounds with AC50 equal or less than 10 uM are considered active; type: functional; details: read-out: AC50
[2] = molecular target: Cytochrome P450 2D6 (Homo sapiens, UniProt P10635);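 further: CYP2D6 member of a cytochrome P450 panel assay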
Sequence of Cytochrome P450 2D6 (P10635 whole entry): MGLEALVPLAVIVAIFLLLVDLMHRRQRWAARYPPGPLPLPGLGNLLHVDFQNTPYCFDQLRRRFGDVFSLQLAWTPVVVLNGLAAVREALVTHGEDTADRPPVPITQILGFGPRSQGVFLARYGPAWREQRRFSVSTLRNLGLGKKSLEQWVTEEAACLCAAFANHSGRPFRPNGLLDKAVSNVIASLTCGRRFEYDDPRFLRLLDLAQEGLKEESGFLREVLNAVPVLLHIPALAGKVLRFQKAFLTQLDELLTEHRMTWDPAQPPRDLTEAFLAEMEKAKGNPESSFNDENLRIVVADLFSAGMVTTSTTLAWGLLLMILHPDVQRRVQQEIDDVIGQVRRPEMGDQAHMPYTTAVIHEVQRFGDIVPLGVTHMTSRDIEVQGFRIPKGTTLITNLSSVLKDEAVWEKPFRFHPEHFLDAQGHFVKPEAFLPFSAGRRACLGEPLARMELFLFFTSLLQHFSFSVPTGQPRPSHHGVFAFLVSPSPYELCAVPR

[3] = molecular target: T1, Cytochrome P450 3A4 (Homo sapiens, UniProt P08684)
T1 sequence (P08684 whole entry): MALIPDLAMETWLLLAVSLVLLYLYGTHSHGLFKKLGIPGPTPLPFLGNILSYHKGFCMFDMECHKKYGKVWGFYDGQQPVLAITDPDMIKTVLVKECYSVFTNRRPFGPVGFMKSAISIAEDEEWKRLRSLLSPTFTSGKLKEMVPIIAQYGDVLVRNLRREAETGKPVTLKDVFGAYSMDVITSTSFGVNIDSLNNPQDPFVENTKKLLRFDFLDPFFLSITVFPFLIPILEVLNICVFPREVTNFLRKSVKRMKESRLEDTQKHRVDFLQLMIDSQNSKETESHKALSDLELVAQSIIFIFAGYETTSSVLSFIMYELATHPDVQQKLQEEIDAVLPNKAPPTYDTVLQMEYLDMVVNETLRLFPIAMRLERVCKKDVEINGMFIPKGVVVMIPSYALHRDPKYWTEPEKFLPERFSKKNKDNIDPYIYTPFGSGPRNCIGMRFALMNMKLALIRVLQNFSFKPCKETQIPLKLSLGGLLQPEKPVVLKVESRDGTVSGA

[4] = molecular target: Cytochrome P450 2C9 (Homo sapiens, UniProt P11712)
Sequence of Cytochrome P450 2C9 (P11712 whole entry, the tested form may be a part): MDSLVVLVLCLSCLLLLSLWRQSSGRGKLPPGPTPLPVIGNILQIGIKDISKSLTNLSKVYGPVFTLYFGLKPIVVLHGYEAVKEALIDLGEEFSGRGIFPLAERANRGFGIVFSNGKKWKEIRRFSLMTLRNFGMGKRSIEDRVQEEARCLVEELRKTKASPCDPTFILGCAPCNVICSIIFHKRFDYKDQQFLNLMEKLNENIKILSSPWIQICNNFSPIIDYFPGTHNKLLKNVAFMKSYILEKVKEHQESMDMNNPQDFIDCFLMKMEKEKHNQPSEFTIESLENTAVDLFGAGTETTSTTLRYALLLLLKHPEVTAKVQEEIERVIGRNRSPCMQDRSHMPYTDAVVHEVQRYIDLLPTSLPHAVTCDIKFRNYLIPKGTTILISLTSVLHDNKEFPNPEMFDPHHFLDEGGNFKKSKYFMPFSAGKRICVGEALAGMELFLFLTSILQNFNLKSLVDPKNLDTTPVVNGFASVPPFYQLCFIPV

[5] = molecular target: T2, Carboxy-terminal domain RNA polymerase II polypeptide A small phosphatase 1 (Homo sapiens, UniProt Q9GZU7); assay: inhibitors of CTDSP1, concentration-response testing, biochemical assay, absorbance-based, actives from ultra-high-throughput screening (AID 540297); type: functional
T2 sequence (Q9GZU7 whole entry): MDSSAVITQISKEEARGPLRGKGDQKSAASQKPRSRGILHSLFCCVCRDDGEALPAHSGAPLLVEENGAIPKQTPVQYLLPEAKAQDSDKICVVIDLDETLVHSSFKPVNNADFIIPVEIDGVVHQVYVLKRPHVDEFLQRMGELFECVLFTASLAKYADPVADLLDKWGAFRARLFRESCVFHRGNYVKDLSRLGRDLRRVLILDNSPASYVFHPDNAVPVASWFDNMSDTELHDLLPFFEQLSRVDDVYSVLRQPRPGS

[6] = cells; type: functional, cell-based
[7] = cells; type: functional, cell-based; remark: listed apart in the source
[8] = molecular target: T1, Cytochrome P450 3A4; details: Potency
[9] = inhibitors of intracellular T. cruzi replication, confirmation, NIH3T3 host cells, beta-gal luminescence (AID 2044); type: functional, cell-based;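 further: intracellular parasites grown in NIH/3T3 mouse fibroblasts as host cells; luminescent beta-galactosidase reporter signal from transgenic T. cruzi replicating inside host cells; inhibitors lower the luminescence signal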
[10] = cytotoxicity toward NIH3T3 fibroblasts, dose response, counter-screen, cell-based, ATP luminescence, mouse fibroblasts (AID 2010); type: functional;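 further: cells exposed to compound for about 90 hours before reading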
[11] = system: INS1; assay: beta cell apoptosis inhibitors, cytokine rescue, dose response, luminescence, retest (AID 449756); type: functional, cell-based; details: Rattus norvegicus;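 further: cell death triggered by IL-1 beta plus TNF-alpha plus IFN-gamma mixture; protective hits raise ATP signal compared with cytokine alone wells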
[12] = molecular target: T3, Leucine aminopeptidase (Plasmodium falciparum 3D7, UniProt Q8IL11); assay: P. falciparum M17LAP inhibitors, primary screen, biochemical, fluorogenic H-Leu-NHMec substrate, 1536-well (AID 1619); type: functional
T3 sequence (Q8IL11 whole entry): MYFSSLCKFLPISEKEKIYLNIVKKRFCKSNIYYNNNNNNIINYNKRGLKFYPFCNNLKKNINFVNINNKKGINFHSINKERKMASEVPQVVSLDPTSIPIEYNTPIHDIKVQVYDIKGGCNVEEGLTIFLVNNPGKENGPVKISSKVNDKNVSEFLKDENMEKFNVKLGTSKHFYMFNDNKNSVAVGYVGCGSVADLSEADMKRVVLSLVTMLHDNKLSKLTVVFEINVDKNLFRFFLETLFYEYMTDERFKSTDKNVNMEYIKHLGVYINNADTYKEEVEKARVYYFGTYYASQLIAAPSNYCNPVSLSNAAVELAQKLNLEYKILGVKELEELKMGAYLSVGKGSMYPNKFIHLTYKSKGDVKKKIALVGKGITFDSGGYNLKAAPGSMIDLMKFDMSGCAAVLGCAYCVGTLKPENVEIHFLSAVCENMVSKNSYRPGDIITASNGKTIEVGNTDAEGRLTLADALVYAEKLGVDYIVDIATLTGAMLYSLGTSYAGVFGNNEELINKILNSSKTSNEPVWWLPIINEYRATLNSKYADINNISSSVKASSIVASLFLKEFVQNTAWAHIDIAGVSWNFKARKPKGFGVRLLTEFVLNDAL

[13] = molecular target: T4, Mannose-6-phosphate isomerase (Homo sapiens, UniProt P34949); assay: human PMI inhibitors, high substrate, primary screen, biochemical, fluorescence intensity, high mannose 6-phosphate (AID 1220)
T4 sequence (P34949 whole entry): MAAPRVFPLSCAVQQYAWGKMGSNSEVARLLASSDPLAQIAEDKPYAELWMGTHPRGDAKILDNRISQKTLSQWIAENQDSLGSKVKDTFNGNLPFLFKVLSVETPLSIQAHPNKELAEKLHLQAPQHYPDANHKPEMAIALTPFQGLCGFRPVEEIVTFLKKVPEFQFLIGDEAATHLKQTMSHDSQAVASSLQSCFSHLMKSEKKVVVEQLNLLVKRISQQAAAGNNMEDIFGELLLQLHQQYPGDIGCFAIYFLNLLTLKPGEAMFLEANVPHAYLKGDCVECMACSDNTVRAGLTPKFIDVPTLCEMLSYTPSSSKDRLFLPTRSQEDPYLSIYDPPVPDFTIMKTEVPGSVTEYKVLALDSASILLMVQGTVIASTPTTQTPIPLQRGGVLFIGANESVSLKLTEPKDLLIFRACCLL

[14] = molecular target: T5, Ubiquitin-conjugating enzyme E2 N (Homo sapiens, UniProt P61088); type: functional;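 further: Dose-response confirmation in a TR-FRET assay detecting UBC13-driven polyubiquitin chain formation, inhibition measured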
T5 sequence (P61088 whole entry): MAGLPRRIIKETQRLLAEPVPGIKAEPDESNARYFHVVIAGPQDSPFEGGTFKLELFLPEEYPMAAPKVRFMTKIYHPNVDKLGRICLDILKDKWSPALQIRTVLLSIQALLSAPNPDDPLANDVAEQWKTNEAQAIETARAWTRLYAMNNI

[15] = cells; type: functional, cell-based; remark: listed apart in the source
[16] = molecular target: T6, Trace amine-associated receptor 1 (Homo sapiens, UniProt Q96RJ0); assay: Fluorescence-based cell-based high throughput dose response assay to identify agonists of the human trace amine associated receptor 1 (TAAR1).; type: functional
T6 sequence (Q96RJ0 whole entry): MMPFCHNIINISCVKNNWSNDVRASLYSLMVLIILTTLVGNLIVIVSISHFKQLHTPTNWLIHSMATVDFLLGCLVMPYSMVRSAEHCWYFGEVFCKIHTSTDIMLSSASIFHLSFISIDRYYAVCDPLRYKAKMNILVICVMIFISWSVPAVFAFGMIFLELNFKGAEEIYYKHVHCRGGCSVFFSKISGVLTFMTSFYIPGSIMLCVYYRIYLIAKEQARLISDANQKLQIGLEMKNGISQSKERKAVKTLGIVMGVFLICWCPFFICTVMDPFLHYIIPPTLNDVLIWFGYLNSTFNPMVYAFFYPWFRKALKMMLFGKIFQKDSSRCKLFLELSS

[17] = molecular target: T6, Trace amine-associated receptor 1; assay: Counterscreen for agonists of the human trace amine associated receptor 1 (hTAAR1): Fluorescence-based cell-based high throughput dose response assay to identify hTAAR1 agonist that also desensitize TAAR1 receptor response.; type: functional
[18] = cells; type: functional, cell-based; remark: listed apart in the source
[19] = cells; type: functional
[20] = Luminescence Cell-Based Dose Confirmation HTS to Identify Activators of 5'UTR Stem-Loop Driven Alpha-Synuclein mRNA Translation in H4 Neuroglioblastoma Cells. [Related pubchem assays: 1829 (Project Summary), 1814 (Primary HTS)]; type: functional
[21] = Luminescence Cell-Based Dose Response HTS to Identify Activators of Luciferase Translation or Activity in H4 […] Cells. [Related pubchem assays: 1829 (Project Summary), 1814 (Primary HTS)]; type: functional
[22] = system: H4; assay: Luminescence Cell-Based Dose Response HTS to Identify Activators of 5'UTR Stem-Loop Driven Prion Protein mRNA Translation in H4 Neuroglioblastoma Cells. [Related pubchem assays: 1829 (Project Summary), 1814 (Primary HTS)]; type: functional; details: Homo sapiens
[23] = molecular target: Luciferin 4-monooxygenase (Photinus pyralis, UniProt P08659); assay: firefly luciferase enzyme inhibitors, dose response, biochemical, luminescence (AID 1891)
Sequence of Luciferin 4-monooxygenase (P08659 whole entry): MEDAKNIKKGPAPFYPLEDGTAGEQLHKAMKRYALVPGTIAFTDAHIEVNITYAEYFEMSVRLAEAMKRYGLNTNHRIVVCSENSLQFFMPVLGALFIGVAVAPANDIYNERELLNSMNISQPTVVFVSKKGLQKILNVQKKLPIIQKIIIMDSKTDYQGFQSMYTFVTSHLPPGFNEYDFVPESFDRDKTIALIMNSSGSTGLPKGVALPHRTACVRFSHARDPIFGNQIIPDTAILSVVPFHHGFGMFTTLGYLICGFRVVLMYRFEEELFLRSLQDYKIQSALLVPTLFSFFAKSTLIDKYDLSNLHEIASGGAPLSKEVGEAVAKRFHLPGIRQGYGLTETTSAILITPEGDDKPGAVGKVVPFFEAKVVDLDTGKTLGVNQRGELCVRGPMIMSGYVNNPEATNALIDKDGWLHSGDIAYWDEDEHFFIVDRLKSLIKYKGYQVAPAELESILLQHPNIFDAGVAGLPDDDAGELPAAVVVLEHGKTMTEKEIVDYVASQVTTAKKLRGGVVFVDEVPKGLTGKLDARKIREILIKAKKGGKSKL

[24] = Luminescence Cell-Based Dose Confirmation HTS to Identify Inhibitors of Platelet Dense Granule Release. [Related pubchem assays: 1663 (Primary HTS), 1678 (Summary of Project)]; type: functional
[25] = molecular target: T7, Cytochrome P450 1A2 (Homo sapiens, UniProt P05177)
T7 sequence (P05177 whole entry): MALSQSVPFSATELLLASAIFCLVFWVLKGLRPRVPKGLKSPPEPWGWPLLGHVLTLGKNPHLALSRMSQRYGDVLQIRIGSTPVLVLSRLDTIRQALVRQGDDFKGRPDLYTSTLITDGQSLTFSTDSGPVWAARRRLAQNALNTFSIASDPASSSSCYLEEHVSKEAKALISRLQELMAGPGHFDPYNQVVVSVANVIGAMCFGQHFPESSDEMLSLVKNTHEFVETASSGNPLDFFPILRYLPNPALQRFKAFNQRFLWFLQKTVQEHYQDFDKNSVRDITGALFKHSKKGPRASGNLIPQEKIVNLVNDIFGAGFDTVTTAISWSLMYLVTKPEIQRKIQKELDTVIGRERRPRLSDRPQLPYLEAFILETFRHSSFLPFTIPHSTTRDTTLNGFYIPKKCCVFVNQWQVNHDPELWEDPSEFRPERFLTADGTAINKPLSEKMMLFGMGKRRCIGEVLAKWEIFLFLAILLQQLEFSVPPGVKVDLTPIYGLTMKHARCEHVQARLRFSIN

Sequence of Cytochrome P450 2C19 (P33261 whole entry): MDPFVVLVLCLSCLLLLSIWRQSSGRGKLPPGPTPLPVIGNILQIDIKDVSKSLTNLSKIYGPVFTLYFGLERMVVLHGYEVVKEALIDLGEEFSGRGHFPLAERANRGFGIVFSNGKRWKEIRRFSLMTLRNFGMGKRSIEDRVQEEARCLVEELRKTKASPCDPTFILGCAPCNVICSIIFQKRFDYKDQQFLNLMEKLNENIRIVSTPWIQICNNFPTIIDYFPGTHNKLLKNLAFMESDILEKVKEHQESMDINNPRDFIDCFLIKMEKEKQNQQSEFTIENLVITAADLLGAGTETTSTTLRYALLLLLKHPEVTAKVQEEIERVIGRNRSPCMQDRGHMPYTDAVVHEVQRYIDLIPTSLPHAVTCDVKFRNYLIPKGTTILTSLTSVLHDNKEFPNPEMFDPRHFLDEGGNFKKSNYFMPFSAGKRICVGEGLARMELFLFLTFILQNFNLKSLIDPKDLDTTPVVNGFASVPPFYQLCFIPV

COc1ccc(S(=O)(=O)NCCC(=O)NC(C)c2ccccc2)cc1 (stereo not given)
AC50 [1]: 17.8 µM (inconclusive)
AC50 [2]: 14.1 µM (inconclusive)
AC50 [3]: 22.4 µM (inconclusive)
AC50 [4]: inconclusive

CC(C)c1cccc(-c2ccc3c(c2)S(=O)(=O)c2cccc(C(=O)NCc4ccco4)c2C3=O)c1
IC50 [5]: 8.02 µM (active)

Cc1cc(C(=O)OCC(=O)NCCC(C)C)c2ccccc2n1
AC50 [3]: 15.8 µM (inconclusive)
AC50 [4]: inconclusive

CCOc1ccc(NC(=O)C2CCN(S(=O)(=O)c3ccc4c(c3)N(C(C)=O)CCO4)CC2)cc1
EC50 [6]: > 350 µM (not active)
EC50 [7]: > 350 µM (not active)

CC(C)c1c(O)ccc2c1CCC1C(C)(C)CCC[C@@]21C (stereo not given in full)
AC50 [8]: 25.1 µM (inconclusive)

NC(=NOC(=O)N1c2ccccc2Sc2ccccc21)c1ccc(Br)cc1
IC50 [5]: 6.46 µM (active)

O=C(N/N=C/c1cc([N+](=O)[O-])ccc1O)c1cccc2ccccc12
EC50 [6]: 20.3 µM (active)
EC50 [9]: 2.36 µM (active)
EC50 [7]: > 350 µM (not active)
EC50 [10]: > 60 µM (not active)
AC50 [11]: 4.2 µM (active)

O=C(O)c1ccc(COc2ccc3ccccc3c2/C=C2/NC(=O)N(c3ccccc3)C2=O)cc1
IC50 [12]: 24.6 µM (active)

CCOc1cc2c(C#N)c(N3CCNCC3)nc(N)c2c(N)n1
IC50 [13]: > 50 µM (not active)
IC50 [14]: > 20 µM (inactive)
IC50 [15]: > 29.9 µM (inactive)
EC50 [16]: 5.69 µM (active)
IC50 [17]: 8.23 µM (active)
EC50 [18]: > 29.9 µM (inactive)

O=C1OCc2cc(NC(=O)C34CC5CC(CC(C5)C3)C4)ccc21
EC50 [6]: > 350 µM (not active)
EC50 [7]: > 350 µM (not active)

COc1cccc(C(=O)OCn2nnc3ccccc3c2=O)c1OC
IC50 [19]: 16.2 µM (active)

O=S(=O)(NC1CCN(Cc2ccccc2)CC1)c1cccc2cccnc12
AC50 [2]: 1.58 µM (inconclusive)
AC50 [4]: inconclusive

Cc1ccn2c(=O)nc(SCC(=O)NCc3ccccc3)nc2c1
IC50 [5]: 9.61 µM (active)

Cc1cc(O)nc(N=N/C(=N/Nc2ccc(O)cc2)c2ccccc2)n1
EC50 [20]: 11.6 µM (active)
EC50 [21]: 13.1 µM (active)
EC50 [6]: 102 µM (active)
EC50 [22]: 16.4 µM (active)
EC50 [23]: 0.763 µM (active)
EC50 [24]: 4.42 µM (active)
EC50 [7]: 8.27 µM (active)

Cc1cc(O)c(C(C)(C)C)cc1Sc1cc(C(C)(C)C)c(O)cc1C
AC50 [8]: 3.98 µM (inconclusive)

N#Cc1cccc(NC(=O)CN2NS(=O)(=O)c3ccccc3C2=O)c1
IC50 [12]: 14.9 µM (active)

COc1ccc(-c2coc3cc(OC)cc(OC)c3c2=O)cc1 [BIOCHANIN A, DIMETHYL ETHER]
AC50 [8]: 20 µM (inconclusive)

O=C(Nc1ccc(Cl)cc1C(F)(F)F)c1ccc(Cl)cc1
AC50 [1]: 2.24 µM (inconclusive)
AC50 [25]: 4.47 µM (inconclusive)
AC50 [4]: inconclusive

CCCOc1ccc(N2CC(C(=O)Nc3ccccn3)CC2=O)cc1 (stereo not given)
IC50 [19]: 19.8 µM (active)

Cn1ccs/c1=N\C(=O)c1ccccc1F
IC50 [19]: > 50 µM (active)

CC(C)NC(=O)c1cc(C(=O)c2cc(Cl)ccc2O)coc1=N
IC50 [12]: 2.15 µM (active)

Fc1ccc(CSc2ccc(-c3ccco3)nn2)cc1
EC50 [6]: > 350 µM (not active)
EC50 [7]: 7.7 µM (active)

CCOc1ccccc1OCCOc1ccc(F)cc1
AC50 [2]: 22.4 µM (inconclusive)
AC50 [4]: inconclusive

CCNC(=O)NC(=O)C(C)Sc1ccc2c(c1)OCCO2 (stereo not given)
IC50 [12]: 7.93 µM (active)

O=C(/C=C/c1ccccc1)OC1CC(O)C2(O)C=CO[C@@H](OC3OC(CO)C(O)C(O)C3O)C12 (stereo not given in full)
AC50 [8]: 3.98 µM (inconclusive)

COc1ccc(C(=O)OCn2nnc3ccccc3c2=O)cc1
IC50 [19]: 16.8 µM (active)

COc1ccc2cc3cc(C(=O)N4CCN(c5ccccn5)CC4)oc3nc2c1
EC50 [6]: > 350 µM (not active)
EC50 [7]: > 350 µM (not active)

CCCCC#CC1C=CC(Oc2cc(OC)c(OC)c(OC)c2)C(CO)O1 (stereo not given)
AC50 [8]: 5.01 µM (inconclusive)

S=C=Nc1cccc2ccccc12 [1-NAPHTHYLISOTHIOCYANATE]
AC50 [8]: 25.1 µM (inconclusive)

Cc1cccc(NC(=O)c2onc3c2CCCC3)c1C
AC50 [1]: 20 µM (inconclusive)
AC50 [4]: inconclusive

COc1ccc(NC(=O)C2CCN(C(=O)c3cccs3)CC2)c(OC)c1
AC50 [4]: inconclusive

C=CCN1CC[C@]23c4c5ccc(O)c4O[C@H]2/C(=N/NC(=O)c2ccccc2)CC[C@@]3(O)[C@H]1C5 [NALOXONE BENZOYLHYDRAZONE]
AC50 [8]: 15.8 µM (inconclusive)
